Assay results taken from the supplement of paper PMC13207355.

Legend:
Settings in all cases: exposure time: 72 h
E13 [1] = patient-derived glioblastoma stem cells of classical subtype; experiment: surviving fraction (nuclei count normalised to DMSO); higher = more cells surviving (less toxic)
E21 [2] = patient-derived glioblastoma stem cells of mesenchymal subtype; experiment: as above
E28 [3] = patient-derived glioblastoma stem cells of classical subtype; experiment: as above
E31 [4] = patient-derived glioblastoma stem cells of proneural subtype; experiment: as above
E34 [5] = patient-derived glioblastoma stem cells of proneural subtype; experiment: as above
E57 [6] = patient-derived glioblastoma stem cells of mesenchymal subtype; experiment: as above
FT3469 [7] = normal neural stem cell line; experiment: as above
E13 [8] = experiment: phenotypic distance (Euclidean, principal components) from DMSO controls (arbitrary units); higher = stronger morphological change
E21 [9] = experiment: as above
E28 [10] = experiment: as above
E31 [11] = experiment: as above
E34 [12] = experiment: as above
E57 [13] = experiment: as above
FT3469 [14] = experiment: as above
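For phenotypic distance (Euclidean, principal components) from DMSO controls in this document: cell Painting imaging in 384-well plates, CellProfiler features reduced to at least 20 principal components, Euclidean distance versus same-plate DMSO vehicle wells (0.1% v/v), median over six images per well.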
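For surviving fraction (nuclei count normalised to DMSO) in this document: nuclei counted by high-content imaging of Hoechst-stained cells in laminin-coated 384-well plates, relative to 0.1% DMSO vehicle wells, with staurosporine as cell-death control.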

Nc1ncn(C2OC(CO)C(O)C2O)c(=O)n1 (stereo unspecified) [Azacytidine-5]
Settings | phenotypic distance | surviving fraction
E13 [1], 4.1 nM | – | 0.948
E13 [1], 12.3 nM | – | 0.902
E13 [1], 37 nM | – | 0.957
E13 [1], 111.1 nM | – | 1
E13 [1], 333.3 nM | – | 1.01
E13 [1], 1000 nM | – | 0.894
E13 [1], 3000 nM | – | 0.634
E13 [8], 4.1 nM | 0.774 | –
E13 [8], 12.3 nM | 0.925 | –
E13 [8], 37 nM | 0.631 | –
E13 [8], 111.1 nM | 1.16 | –
E13 [8], 333.3 nM | 1.01 | –
E13 [8], 1000 nM | 2.56 | –
E13 [8], 3000 nM | 4.39 | –
E21 [2], 4.1 nM | – | 0.945
E21 [2], 12.3 nM | – | 0.932
E21 [2], 37 nM | – | 1.07
E21 [2], 111.1 nM | – | 0.892
E21 [2], 333.3 nM | – | 0.978
E21 [2], 1000 nM | – | 0.779
E21 [2], 3000 nM | – | 0.634
E21 [9], 4.1 nM | 1.45 | –
E21 [9], 12.3 nM | 0.512 | –
E21 [9], 37 nM | 0.843 | –
E21 [9], 111.1 nM | 1.36 | –
E21 [9], 333.3 nM | 1.28 | –
E21 [9], 1000 nM | 1.92 | –
E21 [9], 3000 nM | 2.82 | –
E28 [3], 4.1 nM | – | 0.969
E28 [3], 12.3 nM | – | 1.09
E28 [3], 37 nM | – | 0.969
E28 [3], 111.1 nM | – | 1.1
E28 [3], 333.3 nM | – | 0.952
E28 [3], 1000 nM | – | 1.15
E28 [3], 3000 nM | – | 0.764
E28 [10], 4.1 nM | 0.577 | –
E28 [10], 12.3 nM | 0.65 | –
E28 [10], 37 nM | 0.956 | –
E28 [10], 111.1 nM | 0.825 | –
E28 [10], 333.3 nM | 3.86 | –
E28 [10], 1000 nM | 0.76 | –
E28 [10], 3000 nM | 1.01 | –
E31 [4], 4.1 nM | – | 0.962
E31 [4], 12.3 nM | – | 0.827
E31 [4], 37 nM | – | 0.96
E31 [4], 111.1 nM | – | 0.986
E31 [4], 333.3 nM | – | 1.04
E31 [4], 1000 nM | – | 0.731
E31 [4], 3000 nM | – | 0.439
E31 [11], 4.1 nM | 0.548 | –
E31 [11], 12.3 nM | 0.901 | –
E31 [11], 37 nM | 0.564 | –
E31 [11], 111.1 nM | 0.874 | –
E31 [11], 333.3 nM | 1.27 | –
E31 [11], 1000 nM | 1.11 | –
E31 [11], 3000 nM | 2.48 | –
E34 [5], 4.1 nM | – | 0.935
E34 [5], 12.3 nM | – | 0.979
E34 [5], 37 nM | – | 0.89
E34 [5], 111.1 nM | – | 1.09
E34 [5], 333.3 nM | – | 1.04
E34 [5], 1000 nM | – | 0.914
E34 [5], 3000 nM | – | 0.858
E34 [12], 4.1 nM | 0.787 | –
E34 [12], 12.3 nM | 0.546 | –
E34 [12], 37 nM | 0.387 | –
E34 [12], 111.1 nM | 0.835 | –
E34 [12], 333.3 nM | 0.732 | –
E34 [12], 1000 nM | 0.672 | –
E34 [12], 3000 nM | 1.24 | –
E57 [6], 4.1 nM | – | 0.979
E57 [6], 12.3 nM | – | 1.09
E57 [6], 37 nM | – | 0.948
E57 [6], 111.1 nM | – | 0.974
E57 [6], 333.3 nM | – | 0.859
E57 [6], 1000 nM | – | 0.702
E57 [6], 3000 nM | – | 0.411
E57 [13], 4.1 nM | 0.265 | –
E57 [13], 12.3 nM | 1.15 | –
E57 [13], 37 nM | 0.6 | –
E57 [13], 111.1 nM | 0.593 | –
E57 [13], 333.3 nM | 1.38 | –
E57 [13], 1000 nM | 2.03 | –
E57 [13], 3000 nM | 3.86 | –
FT3469 [7], 4.1 nM | – | 0.953
FT3469 [7], 12.3 nM | – | 1
FT3469 [7], 37 nM | – | 1.1
FT3469 [7], 111.1 nM | – | 0.935
FT3469 [7], 333.3 nM | – | 0.809
FT3469 [7], 1000 nM | – | 1.04
FT3469 [7], 3000 nM | – | 0.906
FT3469 [14], 4.1 nM | 0.816 | –
FT3469 [14], 12.3 nM | 0.612 | –
FT3469 [14], 37 nM | 0.486 | –
FT3469 [14], 111.1 nM | 1.17 | –
FT3469 [14], 333.3 nM | 0.757 | –
FT3469 [14], 1000 nM | 0.865 | –
FT3469 [14], 3000 nM | 1.77 | –

Nc1nc2n[nH]nc2c(=O)[nH]1 [Azaguanine-8]
Settings | phenotypic distance | surviving fraction
E13 [1], 4.1 nM | – | 0.918
E13 [1], 12.3 nM | – | 1.02
E13 [1], 37 nM | – | 1.08
E13 [1], 111.1 nM | – | 0.87
E13 [1], 333.3 nM | – | 0.559
E13 [1], 1000 nM | – | 0.581
E13 [1], 3000 nM | – | 0.307
E13 [8], 4.1 nM | 0.737 | –
E13 [8], 12.3 nM | 0.508 | –
E13 [8], 37 nM | 1.23 | –
E13 [8], 111.1 nM | 0.95 | –
E13 [8], 333.3 nM | 2.46 | –
E13 [8], 1000 nM | 2.82 | –
E13 [8], 3000 nM | 5.02 | –
E21 [2], 4.1 nM | – | 0.917
E21 [2], 12.3 nM | – | 1.06
E21 [2], 37 nM | – | 0.788
E21 [2], 111.1 nM | – | 0.68
E21 [2], 333.3 nM | – | 0.489
E21 [2], 1000 nM | – | 0.429
E21 [2], 3000 nM | – | 0.296
E21 [9], 4.1 nM | 0.646 | –
E21 [9], 12.3 nM | 1.28 | –
E21 [9], 37 nM | 1.04 | –
E21 [9], 111.1 nM | 1.87 | –
E21 [9], 333.3 nM | 3.3 | –
E21 [9], 1000 nM | 4.9 | –
E21 [9], 3000 nM | 7.15 | –
E28 [3], 4.1 nM | – | 1.08
E28 [3], 12.3 nM | – | 1.11
E28 [3], 37 nM | – | 1.14
E28 [3], 111.1 nM | – | 0.882
E28 [3], 333.3 nM | – | 0.664
E28 [3], 1000 nM | – | 0.574
E28 [3], 3000 nM | – | 0.292
E28 [10], 4.1 nM | 0.671 | –
E28 [10], 12.3 nM | 0.89 | –
E28 [10], 37 nM | 1 | –
E28 [10], 111.1 nM | 0.848 | –
E28 [10], 333.3 nM | 1.21 | –
E28 [10], 1000 nM | 1.81 | –
E28 [10], 3000 nM | 3.73 | –
E31 [4], 4.1 nM | – | 0.825
E31 [4], 12.3 nM | – | 0.941
E31 [4], 37 nM | – | 1.07
E31 [4], 111.1 nM | – | 0.654
E31 [4], 333.3 nM | – | 0.48
E31 [4], 1000 nM | – | 0.225
E31 [4], 3000 nM | – | 0.0814
E31 [11], 4.1 nM | 1.03 | –
E31 [11], 12.3 nM | 0.622 | –
E31 [11], 37 nM | 0.999 | –
E31 [11], 111.1 nM | 1.08 | –
E31 [11], 333.3 nM | 1.4 | –
E31 [11], 1000 nM | 2.35 | –
E31 [11], 3000 nM | 5.2 | –
E34 [5], 4.1 nM | – | 0.988
E34 [5], 12.3 nM | – | 0.839
E34 [5], 37 nM | – | 0.913
E34 [5], 111.1 nM | – | 0.939
E34 [5], 333.3 nM | – | 0.795
E34 [5], 1000 nM | – | 0.601
E34 [5], 3000 nM | – | 0.563
E34 [12], 4.1 nM | 0.455 | –
E34 [12], 12.3 nM | 0.707 | –
E34 [12], 37 nM | 0.662 | –
E34 [12], 111.1 nM | 0.809 | –
E34 [12], 333.3 nM | 1.12 | –
E34 [12], 1000 nM | 2.2 | –
E34 [12], 3000 nM | 3.18 | –
E57 [6], 4.1 nM | – | 1
E57 [6], 12.3 nM | – | 0.873
E57 [6], 37 nM | – | 0.831
E57 [6], 111.1 nM | – | 0.605
E57 [6], 333.3 nM | – | 0.459
E57 [6], 1000 nM | – | 0.271
E57 [6], 3000 nM | – | 0.22
E57 [13], 4.1 nM | 0.712 | –
E57 [13], 12.3 nM | 0.801 | –
E57 [13], 37 nM | 1.2 | –
E57 [13], 111.1 nM | 1.96 | –
E57 [13], 333.3 nM | 3.18 | –
E57 [13], 1000 nM | 5.55 | –
E57 [13], 3000 nM | 6.09 | –
FT3469 [7], 4.1 nM | – | 0.958
FT3469 [7], 12.3 nM | – | 1.15
FT3469 [7], 37 nM | – | 1.2
FT3469 [7], 111.1 nM | – | 0.987
FT3469 [7], 333.3 nM | – | 0.881
FT3469 [7], 1000 nM | – | 0.685
FT3469 [7], 3000 nM | – | 0.59
FT3469 [14], 4.1 nM | 0.821 | –
FT3469 [14], 12.3 nM | 1.13 | –
FT3469 [14], 37 nM | 0.941 | –
FT3469 [14], 111.1 nM | 1.28 | –
FT3469 [14], 333.3 nM | 1.37 | –
FT3469 [14], 1000 nM | 1.95 | –
FT3469 [14], 3000 nM | 2.95 | –
